Experimental data published in patent US9751826B2, “4-vinyl-2-cyclopenten-1-one derivatives, the production thereof, and the use of same as an antibiotic agent” (Centre National de la Recherche Scientifique (CNRS), priority 2014, dated 2017).

What was measured:
Format in all cases: cell-based
[1] = test system: Pseudomonas aeruginosa (ATCC 27853); assay: Antibiotic test, inhibition zone technique; conditions: 10 μg deposited
Description: (§1) Once purified, the molecule of the compound of formula (Ia) is redissolved in suitable solvents and at a suitable concentration, preferentially in dimethyl sulfoxide (DMSO) at a concentration of 10 mg/ml. This initial solution is then diluted according to the various biological tests to be performed. Two series of tests were carried out. The molecule of the compound of formula (Ia) was used in antibiotic tests, employing the inhibition zone technique, on various Gram-positive and Gram-negative bacteria, in the amount of 100 μg. In parallel, similar tests are carried out with control antibiotics in varying amounts depending on the antibiotic, either 10 μg or 30 μg.

[2] = test system: Staphylococcus aureus (ATCC 25923); assay: Antibiotic test, inhibition zone technique
Description: as §1

[3] = test system: Bacillus subtilis (ATCC 6633); assay: Antibiotic test, inhibition zone technique
Description: as §1

[4] = test system: Acinetobacter baumannii (ATCC 19606); assay: Antibiotic test, inhibition zone technique
Description: as §1

[5] = test system: various target pathogenic microorganisms; assay: Antibiotic activity at 1 to 100 μg (FIG. 7); conditions: amounts of 1 to 100 μg
Description: The molecule of the compound of formula (Ia) was used in antibiotic tests, employing the inhibition zone technique, on various Gram-positive and Gram-negative bacteria, in the amount of 100 μg. In parallel, similar tests are carried out with control antibiotics in varying amounts depending on the antibiotic, either 10 μg or 30 μg.
FIG. 7 illustrates the antibiotic activity of the compound of formula (Ia) on various target pathogenic microorganisms in amounts of 1 to 100 μg in comparison with chloramphenicol and gentamycin at 30 μg and 10 μg, respectively. […] Indeed, inhibition by 1 μg of the compound of formula (Ia) is equivalent to that obtained with 30 μg of chloramphenicol. The same observations and conclusions can be made for all the strains that are sensitive to the compound of formula (Ia) as shown in FIG. 7.

MRC5 cells = assay: Cytotoxicity test on non-cancerous MRC5 cells
Description: (§2) Once purified, the molecule of the compound of formula (Ia) is redissolved in suitable solvents and at a suitable concentration, preferentially in dimethyl sulfoxide (DMSO) at a concentration of 10 mg/ml. This initial solution is then diluted according to the various biological tests to be performed. Two series of tests were carried out. Tests for cytotoxicity on a KB cancer cell line (carcinoma) and an equivalent line of non-cancerous MRC5 cells. The following table presents the percentage of inhibition of growth by the molecule of the compound of formula (Ia) at concentrations of 1 and 10 micromolar.

[6] = test system: Escherichia coli (ATCC 25922); assay: Antibiotic test, inhibition zone technique
Description: as §1

[7] = test system: Enterobacter cloacae (ATCC 13047); assay: Antibiotic test, inhibition zone technique
Description: as §1

[8] = test system: Streptococcus pneumoniae (ATCC 49619); assay: Antibiotic test, inhibition zone technique
Description: as §1

[9] = test system: Klebsiella pneumoniae (ATCC 1001); assay: Antibiotic test, inhibition zone technique
Description: as §1

[10] = test system: Micrococcus luteus (ATCC 10240); assay: Antibiotic test, inhibition zone technique
Description: as §1

[11] = test system: KB cancer cell line (carcinoma); assay: Cytotoxicity test on KB cancer cell line
Description: as §2

Compound: Gentamycin [reference compound]
- Inhibition zone by the reference antibiotics [1]: 1.3 cm
- Inhibition zone by the reference antibiotics ([2]; 10 μg deposited): 1.2 cm
- Inhibition zone by the reference antibiotics ([3]; 10 μg deposited): 1.2 cm
- Inhibition zone by the reference antibiotics ([4]; 10 μg deposited): 0.9 cm

Compound: COC(=O)/C=C/[C@@]1(O)C=CC(=O)C1 [compound of formula (Ia)]
- dose dependence of antibiotic activity [5]: dose-dependent
- cytotoxicity against healthy cells (MRC5 cells; 1 and 10 micromolar): no cytotoxicity is observed
- inhibition at 10 µM (MRC5 cells; Homo sapiens, 10^−5 M, read-out: percentage of inhibition of growth): 2 ± 12%
- inhibition at 1 µM (MRC5 cells; Homo sapiens, 10^−6 M, read-out: percentage of inhibition of growth): 1 ± 3%
- Inhibition zone for 100 μg of the compound of formula (Ia) ([6]; 100 μg deposited): 2.7 cm
- amount giving inhibition equivalent to that of 30 μg of chloramphenicol ([6]; FIG. 7): 1 µg
- antibiotic activity compared with chloramphenicol ([6]; FIG. 7, 1 to 100 μg vs chloramphenicol 30 μg): much higher activity than that of chloramphenicol
- Inhibition zone for 100 μg of the compound of formula (Ia) ([7]; 100 μg deposited): 1.2 cm
- Inhibition zone for 100 μg of the compound of formula (Ia) ([8]; 100 μg deposited): 2.0 cm
- Inhibition zone for 100 μg of the compound of formula (Ia) ([9]; 100 μg deposited): 2.9 cm
- Inhibition zone for 100 μg of the compound of formula (Ia) ([10]; 100 μg deposited): 3.2 cm
- Inhibition zone for 100 μg of the compound of formula (Ia) ([2]; 100 μg deposited): 3.0 cm
- Inhibition zone for 100 μg of the compound of formula (Ia) ([3]; 100 μg deposited): 2.7 cm
- Inhibition zone for 100 μg of the compound of formula (Ia) ([4]; 100 μg deposited): 3.2 cm
- cytotoxicity against tumor cells ([11]; 1 and 10 micromolar): no cytotoxicity is observed
- inhibition at 10 µM ([11]; Homo sapiens, KB cells, 10^−5 M, read-out: percentage of inhibition of growth): 0%
- inhibition at 1 µM ([11]; Homo sapiens, KB cells, 10^−6 M, read-out: percentage of inhibition of growth): 0%

Compound: O=C(N[C@H](CO)[C@H](O)c1ccc([N+](=O)[O-])cc1)C(Cl)Cl [Chloramphenicol, reference compound]
- Inhibition zone by the reference antibiotics ([6]; 30 μg deposited): 1.0 cm
- Inhibition zone by the reference antibiotics ([7]; 30 μg deposited): 1.5 cm
- Inhibition zone by the reference antibiotics ([9]; 30 μg deposited): 2.5 cm
- Inhibition zone by the reference antibiotics ([10]; 30 μg deposited): 3.2 cm

Compound: Penicillin [reference compound]
- Inhibition zone by the reference antibiotics ([8]; 30 μg deposited): 3.5 cm
